One molecule from patent US5877202A, “Indole derivatives useful to treat estrogen-related neoplasms and disorders” (priority 1996, dated 1999) can be followed below.

Assay [1] concerns MCF-7 human breast tumor cells. In words: Clonigenic assay for MCF-7 human breast tumor cells. The settings on record: for Colonies ± S.D.: 24 hours treatment, grown 22 days. The class given is cell-based. As for the experimental part:
MCF-7 cells (10^7) are added to 100 mm tissue culture dishes, allowed to adhere for 24 hours and then treated with either MDL 101,906 or ICI 164,384 for 24 hours. The cells are removed from the dishes with trypsin/EDTA, and washed twice by centrifugation. The cells were counted and 500 cells from each treatment group are added to triplicate wells of 6-well culture dishes. The cells are grown for 22 days. Colonies 1 mm diameter or greater are counted.

In the next assay the target is T1, estrogen receptors (Homo sapiens, UniProt P03372).
T1 construct: estrogen receptor extracted from MCF-7 human breast tumor cells; endogenous in cells; host or cells: MCF-7 human breast cancer cells (nuclear extract, cytosol or whole cell extract)
T1 sequence (P03372 1-595): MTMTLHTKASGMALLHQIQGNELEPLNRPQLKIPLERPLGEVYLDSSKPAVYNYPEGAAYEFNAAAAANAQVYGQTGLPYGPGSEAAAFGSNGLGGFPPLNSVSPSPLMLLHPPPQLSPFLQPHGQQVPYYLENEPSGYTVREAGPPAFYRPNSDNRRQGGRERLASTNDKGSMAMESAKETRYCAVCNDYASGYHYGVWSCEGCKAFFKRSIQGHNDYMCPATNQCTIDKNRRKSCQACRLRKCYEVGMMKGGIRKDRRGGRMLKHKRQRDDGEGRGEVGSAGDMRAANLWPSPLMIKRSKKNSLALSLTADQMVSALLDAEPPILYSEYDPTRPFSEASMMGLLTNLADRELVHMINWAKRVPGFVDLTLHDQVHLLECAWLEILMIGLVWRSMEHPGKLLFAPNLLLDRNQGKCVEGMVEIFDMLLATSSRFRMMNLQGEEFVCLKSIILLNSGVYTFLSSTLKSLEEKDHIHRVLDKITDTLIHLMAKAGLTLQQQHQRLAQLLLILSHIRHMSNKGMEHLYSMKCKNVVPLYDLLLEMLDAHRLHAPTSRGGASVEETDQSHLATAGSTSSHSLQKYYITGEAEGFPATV
In words: Quantification of estrogen receptors in nuclear and whole cell extracts (ER-EIA monoclonal kit), Table 1. The class given is cell-based, human (MCF-7 human breast cancer cells). The settings on record: estrogen receptors in nuclear extracts. The method, then:
Monolayers of MCF-7 human breast cancer cells are rinsed once with HBSS and scraped off culture dishes into 15 ml conical tubes with 5 ml HBSS. The cells are sedimented by centrifugation at 250×g for five minutes, suspended in 1 ml HBSS and sedimented by centrifugation at 2000 rpm in a tabletop centrifuge for five minutes in a 1.5 ml microfuge tube. Two PCV of a solution of a lysis buffer (25 mM HEPES, pH 7.8, 50 mM KCl, 0.5% Nonidet P 40, 2 mM dithiothreitol, 0.2 mM phenylmethylsulfonyl fluoride, 0.05 mg/ml leupeptin, 0.05 mg/ml aprotinin, 0.0025 mg/ml pepstatin, 0.005 mg/ml antipain) are added and cells are kept on ice for 15 minutes. Lysed cells are centrifuged for 3 minutes at 10,000×g, supernatant decanted, and kept as the cytosol fraction. Pellets are suspended in two PCV of extraction buffer (25 mM HEPES, pH 7.8, 500 mM KCl, 10% glycerol, 2 mM dithiothreitol and the above protease inhibitors), mixed for 20 minutes by inversion at 4 degrees C. and centrifuged at 10,000×g for 20 minutes. The supernatant is decanted and saved as nuclear extract. Both the nuclear extract and the cytosol are dialyzed for two hours against dialysis buffer (25 mM HEPES, pH 7.8, 50 mM KCl, 10% glycerol, 2 mM dithiothreitol and the above protease inhibitors). Nuclear and cytosol fractions are stored frozen at -80 degrees C. until used for mobility shift assays or determination of estrogen receptor content.
Whole cell extracts of tumor cells are prepared by the method of Reese and Katzenellenbogen, Nuc. Acids Res., 19: 6595-6602 (1991), with some modifications. Cell monolayers are rinsed once with HBSS, then scraped into HBSS and sedimented by centrifugation (5 min., 250×g). After resuspending in 1 mL HBSS, the cells are again sedimented at 250×g for 5 min at 4° C. The cell pellet is resuspended in lysis/extract buffer containing 20 mM Tris, pH 7.5, 10% glycerol (v/v), 0.5M sodium chloride and 0.5% NP-40 (v/v) and incubated on ice for 25 minutes, then the supernatants are dialyzed against 25 mM HEPES, pH 7.8, 10% glycerol (v/v), 0.5 mM dithiothreitol and 50 mM potassium chloride for 2 hours at 4° C. Both the lysis/extraction and the dialysis buffers contain protease inhibitors which included 0.5 mM phenylmethylsulfonylfluoride, 0.05 mg/mL leupeptin, 0.05 mg/mL aprotinin, 0.00-25 mg/mL pepstatin, and 0.005 mg/mL antipain. Dialyzed whole cell extracts are stored in aliquots at -80° C. until used.
The protein concentration for nucleus and cytosol fractions are determined with a BIO-RAD kit, according to the manufacturer's instructions.
Estrogen receptor levels in nuclear and whole cell extracts of tumor cells were quanitated using the ER-EIA monoclonal kit manufactured by Abbott Laboratories (Diagnostic Division) according to the kit instructions.
receptors in nuclear extracts.
.dagger.WCE refers to IC50 value for estrogen receptors in whole cel
A slash dividing two numbers indicates the results of two separate

A word on the IC50: it is the concentration that gives 50% inhibition. Low readings indicate greater potency in that assay, high ones weaker potency in that assay. Consider `CCCCN(C)C(=O)CCCCCCCNC(=O)Cc1c(C)n(C(=O)c2ccc(Cl)cc2)c2ccc(O)cc12` [MDL 101,906, 8-[[5-Hydroxy-1-(4-chlorobenzoyl)-2-methyl-1H-indol-3-yl]-acetylamino]-octanoic acid methyl-butyl-amide], for which the “Colonies ± S.D.” value in assay [1] (10 μM) came out at 30 ± 10; in assay [1] (20 μM), 27 ± 5; in assay [1] (50 μM), 12 ± 2. For the same molecule, in assay [1] (Homo sapiens, MCF7, 528 h, 10 μM, read-out: Colonies, % Control), the activity at 10 µM is 91%. The activity at 20 µM in assay [1] (Homo sapiens, MCF7, 528 h, 20 μM, read-out: Colonies, % Control) was 82%. Moreover, the activity at 50 µM in assay [1] (Homo sapiens, MCF7, 528 h, 50 μM, read-out: Colonies, % Control) amounted to 36%. In addition, the IC50 worked out at 19 µM against estrogen receptors and 8.6 µM against estrogen receptors (second of two separate experiments (after the slash)).
